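Five compound concentrations were applied to cells in 96-well plates for 48 hours; endpoints were derived by simple linear interpolation of the resulting dose-response curve. TGI is the concentration that stops growth completely.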
How the values were obtained:
Experiment in all cases: NCI anticancer screen, dose series, 48 h
A549 NSCLC = test system: A549 NSCLC
NCI/ADR-RES ovarian = test system: NCI/ADR-RES ovarian
U251 CNS = test system: U251 CNS
NCI-H226 lung = test system: NCI-H226 lung
HOP-62 NSCLC = test system: HOP-62 NSCLC
SK-MEL-5 melanoma = test system: SK-MEL-5 melanoma
BT-549 breast = test system: BT-549 breast
NCI-H23 lung = test system: NCI-H23 lung
COLO 205 colon = test system: COLO 205 colon
SF-539 CNS = test system: SF-539 CNS
OVCAR-5 ovarian = test system: OVCAR-5 ovarian
SF-295 CNS = test system: SF-295 CNS
SNB-19 CNS = test system: SNB-19 CNS
786-0 renal = test system: 786-0 renal
SK-MEL-28 melanoma = test system: SK-MEL-28 melanoma
HCT-116 colon = test system: HCT-116 colon
T-47D breast = test system: T-47D breast
HOP-92 NSCLC = test system: HOP-92 NSCLC
HL-60(TB) leukemia = test system: HL-60(TB) leukemia
TK-10 renal = test system: TK-10 renal
CAKI-1 renal = test system: CAKI-1 renal
MDA-MB-435 = test system: MDA-MB-435
M14 melanoma = test system: M14 melanoma
HT29 colon = test system: HT29 colon
KM12 colon = test system: KM12 colon
MDA-N = test system: MDA-N
HS 578T breast = test system: HS 578T breast
OVCAR-4 ovarian = test system: OVCAR-4 ovarian
RPMI-8226 leukemia = test system: RPMI-8226 leukemia
PC-3 prostate = test system: PC-3 prostate
IGROV1 ovarian = test system: IGROV1 ovarian
HCC-2998 colon = test system: HCC-2998 colon
SK-OV-3 ovarian = test system: SK-OV-3 ovarian
LOX IMVI melanoma = test system: LOX IMVI melanoma
NCI-H522 lung = test system: NCI-H522 lung
MDA-MB-231 breast = test system: MDA-MB-231 breast
RXF 393 renal = test system: RXF 393 renal
SN12C renal = test system: SN12C renal
ACHN renal = test system: ACHN renal
NCI-H460 lung = test system: NCI-H460 lung
MOLT-4 leukemia = test system: MOLT-4 leukemia
SK-MEL-2 melanoma = test system: SK-MEL-2 melanoma
OVCAR-3 ovarian = test system: OVCAR-3 ovarian
SW-620 colon = test system: SW-620 colon
UACC-257 melanoma = test system: UACC-257 melanoma
UO-31 renal = test system: UO-31 renal
DU-145 prostate = test system: DU-145 prostate
SR leukemia = test system: SR leukemia
SNB-75 CNS = test system: SNB-75 CNS
UACC-62 melanoma = test system: UACC-62 melanoma
A498 renal = test system: A498 renal
OVCAR-8 ovarian = test system: OVCAR-8 ovarian
EKVX NSCLC = test system: EKVX NSCLC
SF-268 CNS = test system: SF-268 CNS
MCF7 breast = test system: MCF7 breast
HCT-15 colon = test system: HCT-15 colon

`OC1(c2ccccc2)c2ccccc2NC2=NCCN21` (stereo unspecified) was tested, and the TGI (A549 NSCLC) was > 100 µM, the TGI (NCI/ADR-RES ovarian) was > 100 µM and the TGI (U251 CNS) was > 100 µM. For the same compound, the TGI (NCI-H226 lung) was > 100 µM, the TGI (HOP-62 NSCLC) was > 100 µM and the TGI (SK-MEL-5 melanoma) was > 100 µM. For the same compound, the TGI (BT-549 breast) was > 100 µM, the TGI (NCI-H23 lung) was > 100 µM and the TGI (COLO 205 colon) was 99.6 µM. For the same compound, the TGI (SF-539 CNS) was > 100 µM, the TGI (OVCAR-5 ovarian) was > 100 µM and the TGI (SF-295 CNS) was > 100 µM. For the same compound, the TGI (SNB-19 CNS) was > 100 µM, the TGI (786-0 renal) was > 100 µM and the TGI (SK-MEL-28 melanoma) was > 100 µM. For the same compound, the TGI (HCT-116 colon) was > 100 µM, the TGI (T-47D breast) was > 100 µM and the TGI (HOP-92 NSCLC) was > 100 µM. For the same compound, the TGI (HL-60(TB) leukemia) was > 100 µM, the TGI (TK-10 renal) was > 100 µM and the TGI (CAKI-1 renal) was > 100 µM. For the same compound, the TGI (MDA-MB-435) was > 100 µM, the TGI (M14 melanoma) was > 100 µM and the TGI (HT29 colon) was > 100 µM. The TGI (KM12 colon) was > 100 µM, the TGI (MDA-N) was > 100 µM and the TGI (HS 578T breast) was > 100 µM. For the same compound, the TGI (OVCAR-4 ovarian) was > 100 µM, the TGI (RPMI-8226 leukemia) was 45.8 µM and the TGI (PC-3 prostate) was > 100 µM. The TGI (IGROV1 ovarian) was > 100 µM, the TGI (HCC-2998 colon) was 31.3 µM and the TGI (SK-OV-3 ovarian) was > 100 µM. The TGI (LOX IMVI melanoma) was > 100 µM, the TGI (NCI-H522 lung) was > 100 µM and the TGI (MDA-MB-231 breast) was > 100 µM. The TGI (RXF 393 renal) was > 100 µM, the TGI (SN12C renal) was > 100 µM and the TGI (ACHN renal) was > 100 µM. The TGI (NCI-H460 lung) was > 100 µM, the TGI (MOLT-4 leukemia) was 52.2 µM and the TGI (SK-MEL-2 melanoma) was > 100 µM. For the same compound, the TGI (OVCAR-3 ovarian) was > 100 µM, the TGI (SW-620 colon) was > 100 µM and the TGI (UACC-257 melanoma) was > 100 µM. For the same compound, the TGI (UO-31 renal) was > 100 µM, the TGI (DU-145 prostate) was > 100 µM and the TGI (SR leukemia) was 45 µM. For the same compound, the TGI (SNB-75 CNS) was > 100 µM, the TGI (UACC-62 melanoma) was > 100 µM and the TGI (A498 renal) was > 100 µM. For the same compound, the TGI (OVCAR-8 ovarian) was > 100 µM, the TGI (EKVX NSCLC) was > 100 µM and the TGI (SF-268 CNS) was > 100 µM. The TGI (MCF7 breast) was > 100 µM and the TGI (HCT-15 colon) was > 100 µM.

Source: PubChem BioAssay (NCI)
